Results reported in US9198915B2, “Methods involving aldose reductase inhibitors” (The Board of Regents of The University of Texas System, priority 2007, dated 2015).

Tests used:
[1] = biological target: AR (Homo sapiens, UniProt P15121); conditions: substrate of AR, in the presence of NADPH; cited from earlier work
[2] = test system: IL-6, IL-8 and PGE2; experiment: RW-induced IL-6, IL-8 and PGE2 secretion by SAEC (ELISA); type: cell-based, human; conditions: siRNA 100 nM, 48 h, then RW 50 μg/ml 24 h
Experimental: The SAEC were plated in 6-well plates at a density of 2×10^5 cells/well in triplicate for each group. After 24 hours, the medium was replaced with serum-free SABM with or without zopolrestat (20 μM). The growth-arrested and AR ablated cells were stimulated with RW (50 μg/mL) for another 24 hours. The medium was collected from each well, centrifuged and supernatant was analyzed for PGE2 (Cayman Chemical Co., Ann Arbor, Mich.); IL-6 (Diaclone, Stamford, Conn.) and IL-8 (R&D systems Inc, Minneapolis, Minn.) by using an ELISA kits according to the manufacturer's instructions.

[3] = test system: AR; experiment: RNA interference ablation of AR in SAEC (AR protein by Western blot); type: cell-based, human; conditions: transient transfection of SAEC, 100 nM, 48 h
Experimental: The ablation of AR mRNA was essentially carried out as described in the art. Briefly, 2×10^5 SAECs were plated in a 6-well plate and grown until ˜80% confluency. The cells were incubated with serum-free medium containing the AR-siRNA ([…] (SEQ ID NO:1)) or scrambled siRNA (AAAATCTCCCTAAATCA TACA (SEQ ID NO:2); control) to a final concentration of 100 nM and the RNAiFect™ transfection reagent (Qiagen). The cells were cultured for 48 h at 37° C., and AR expression was determined by measuring AR protein by Western blot analysis using anti-AR antibodies.
The ablation of AR mRNA was essentially carried out as described in the art. Briefly, 2×10^5 SAECs were plated in a 6-well plate and grown till >80% confluency. The cells were incubated with serum-free medium containing the AR-siRNA ([…]) (SEQ ID NO:1) or scrambled siRNA (AAAATCTCCCTAAATCA TACA (SEQ ID NO:2); control) to a final concentration of 100 nM and the RNAiFect™ transfection reagent (Qiagen). The cells were cultured for 48 h at 37° C., and AR expression was determined by measuring AR protein by Western blot analysis using anti-AR antibodies.

[4] = test system: IL-6, IL-8 and PGE2; experiment: TNF-α- and LPS-induced IL-6, IL-8 and PGE2 secretion by SAEC (ELISA); type: cell-based, human; conditions: siRNA 100 nM 48 h, then TNF-α or LPS 24 h

## CCCCCC(O)/C=C/C=O (stereo not shown) [HNE, 4-hydroxynonenal]
[1]
  Km: 10 to 30 µM

## AATCGGTGTCTCCAACTTCAA (SEQ ID NO:1) (listed as DNA, chemistry not given here) [AR siRNA, siRNA used to ablate AR mRNA in SAEC, 100 nM]
[2]
  RW-induced synthesis of IL-6, IL-8 and PGE2 after siRNA ablation of AR: significantly prevented
[3]
  AR protein abolished: > 95%
[4]
  TNF-α and LPS-induced IL-6, IL-8 and PGE2 production after ablation of AR: significantly prevented
